# Assay results taken from patent US8852587B2 (priority 2008, dated 2014).
# Like-named read-outs stand apart in the source and are kept apart here.
# Target: PrP^Sc (Mus musculus, UniProt P04925)
# Assay type: binding
# [1] = affinity for PrPSc pulldown compared to peptide LH3 (CDR3H)
# [2] = pull-down, compared to peptide LH3
# [3] = pull-down, compared to peptide LH3 (CDR3H)
# Sequence of PrP^Sc (P04925 23-230 limits assumed): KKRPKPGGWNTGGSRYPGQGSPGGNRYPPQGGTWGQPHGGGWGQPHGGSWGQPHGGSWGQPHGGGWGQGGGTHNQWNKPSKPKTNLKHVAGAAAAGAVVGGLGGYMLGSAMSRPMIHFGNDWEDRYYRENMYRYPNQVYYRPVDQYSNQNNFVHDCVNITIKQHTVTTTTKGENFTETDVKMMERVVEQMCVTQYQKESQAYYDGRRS
Substance,Specificity,Specificity [3],other results
H-YFCARWNWERDAMDYWG-OH [CDR3H],PrP^Sc,,Affinity: 0
YFAARWNWERDAMDYWG [LH3A3],PrP^Sc,,
YFCAAWNWERDAMDYWG [LH3A5],PrP^Sc,,
YFCADWNWERDAMDYWG [LH3D5],PrP^Sc,,change of affinity for PrP^Sc: slightly decreases affinity for PrP^Sc
YFCARANWERDAMDYWG [LH3A6],PrP^Sc,,
YFCARWAWERDAMDYWG [LH3A7],,PrP^Sc,Affinity [1]: (+); change of affinity for PrP^Sc [2]: slightly increase affinity for PrP^Sc
YFCARWNAERDAMDYWG [LH3A8],PrP^Sc,,
YFCARWNWARDAMDYWG [LH3A9],PrP^Sc,,
YFCARWNWEADAMDYWG [LH3A10],,PrP^C,Specificity [2]: binds to PrP^C
YFCARWNWEDDAMDYWG [LH3D10],PrP^Sc,,Affinity: (+); change of affinity for PrP^Sc: slightly increase affinity for PrP^Sc
YFCARWNWERAAMDYWG [LH3A11],PrP^Sc,,
YFCARWNWERDAADYWG [LH3A13],,PrP^Sc,Affinity [1]: +; change of affinity for PrP^Sc [2]: increase affinity for PrP^Sc
YFCARWNWERDAMAYWG [LH3A14],,PrP^Sc,Affinity [1]: (+); change of affinity for PrP^Sc [2]: slightly increase affinity for PrP^Sc
YFCARWNWERDAMDAWG [LH3A15],PrP^Sc,,
YFCARWNWERDAMRYWG [LH3R14],PrP^Sc,,
YFCARWNWERRAMDYWG [LH3R11],,PrP^Sc,Affinity [1]: +; change of affinity for PrP^Sc [2]: increase affinity for PrP^Sc
YFCARWNWRRDAMDYWG [LH3R9],,PrP^Sc,Affinity [1]: (+); change of affinity for PrP^Sc [2]: slightly increase affinity for PrP^Sc
